Measured values as given in patent EP2392327A1, “Use of orlistat for the anti-parasitic treatment of a parasitic disease” (Universitätsmedizin der Johannes Gutenberg-Universität Mainz, priority 2010, dated 2011).
Where two headings read alike, the source gives them in different places.

What was measured:
[1] = within the physiological pH range; cited from earlier work
[2] = cited from earlier work
Cryptosporidium parvum [3] = settings: 1.5x10^6 parasites, 5.0 mg Orlistat per gram dry matter
From the text: Error bars represent standard deviations. […] Error bars represent standard deviations.

HCT-8 cells = experiment: Cytotoxicity in MTS/PMS assay on HCT-8 cells; type: cell-based; settings: HCT-8 cultures, 48 hrs
Experimental: Cells were passaged in maintenance medium at 37°C in a 6% CO2/94% humidified air incubator.
Cytotoxicity of Orlistat was tested in an MTS/PMS assay (Hommer et al., 2003). Orlistat stock solution and DMSO solvent (control) were diluted in culture medium and serial dilutions were applied to HCT-8 cultures for 48 hrs.

Cryptosporidium parvum [4] = experiment: In vitro inhibition of the development of Cryptosporidium parvum in HCT-8 cells (cell culture-based enzyme-immune assay)
Experimental: In a cell culture-based enzyme-immune assay increasing concentrations of Orlistat (1 - 15 µM) diluted in culture medium were tested for the inhibition of the development of Cryptosporidium parvum. The parasites were allowed to develop in HCT-8 cells for 48 hrs. The optical readings were converted into parasite growth relative to mean of the controls [%]. […] Orlistat (# 04139, Sigma, Deisenhofen, Germany) was dissolved in DMSO at 10 mM (stock solution). […] Cells were passaged in maintenance medium at 37°C in a 6% CO2/94% humidified air incubator. HCT-8 cells were seeded in 96-well culture plates and infected with Cryptosporidium parvum oocysts (IOWA strain) as described (Hommer et al., 2003). At 2 hrs post infection (p.i.) non-invaded parasites were removed by washing. Orlistat diluted in culture medium or medium alone (negative control) were added. After a total of 48 hrs p.i. culture plates were washed with PBS and fixed with methanol for 15 min. Intracellular stages of Cryptosporidium parvum were detected by an enzyme-immune assay using a monoclonal antibody (McDonald et al., 1995) as described previously (Hommer et al., 2003). Experiments were performed in six-fold replica. Optical density (OD) readings were corrected by the OD of non-infected HCT-8 cells. The means of the infected controls without Orlistat were taken as 100% growth rate. […]

## CCCCCCCCCCC[C@@H](C[C@@H]1OC(=O)[C@H]1CCCCCC)OC(=O)[C@H](CC(C)C)NC=O [Orlistat]
[1]
  pKa: no pKa within the physiological pH range
[2]; chloroform
  solubility in chloroform: freely soluble
[2]; methanol and ethanol
  solubility in methanol and ethanol: very soluble
[2]; water
  solubility in water: practically insoluble
Cryptosporidium parvum [3]; interferon-gamma deficient mice, p < 0.0006
  reduction of total parasite excretion by a factor: 125
Cryptosporidium parvum [3]; interleukin-12 deficient mice, p < 0.008
  reduction of total parasite excretion by a factor: over 80
HCT-8 cells
  cytotoxic effect on HCT-8 cells detected at concentrations: > 20 µM
Cryptosporidium parvum [4]; Cryptosporidium parvum, 15 µM, 48 hrs p.i., HCT-8 host cells, compared to the infected but untreated controls, read-out: inhibition rate
  inhibition at 15 µM: > 90%
Cryptosporidium parvum [4]; all Orlistat concentrations (1 - 15 µM), p < 0.0002
  reduction of parasite development in the HCT-8 host cells: concentration dependent, statistically significant reduction
